{"source": "patent US20150344843A1", "about": "“DETERGENT TREATED BIOLOGICAL TISSUE WITH LOW RESIDUAL DETERGENT AND METHOD OF PRODUCING THE SAME” (Bacterin International, Inc., priority 2014, published 2015)", "system": "L-929 mouse fibroblast cells", "assay": "MEM endpoint dilution assay for liquids (cytotoxic threshold of SDS)", "assay_type": "cell-based", "parameters": "key to Cytotoxicity Score: 0: Discrete intracytoplasmic granules, no cell lysis, no reduction of cell growth; 1: Not more than 20% of the cells are round, loosely attached, and without intracytoplasmic granules, or show changes in morphology; occasional lysed cells are present; only slight growth inhibition observable; 2: Not more than 50% of the cells are round, devoid of intracytoplasmic granules, no extensive cell lysis; not more than 50% growth inhibition observable; 3: Not more than 70% of the cell layers contain rounded cells or are lysed; cell layers not completely destroyed, but more than 50% growth inhibition observable; 4: Nearly complete or complete destruction of the cell layers", "details": "for Cytotoxicity Score: about 24 hours; for Pass/Fail: scores 0-2 Pass, 3-4 Fail per Table 1", "procedure": "To determine the cytotoxic threshold of SDS, an MEM endpoint dilution assay for liquids using L-929 mouse fibroblast cells was performed. Briefly, solutions of Eagle's minimum essential medium with about 5% fetal bovine serum were created with various concentrations of SDS. One mL of the SDS containing medium was placed in a disposable tissue culture labware and a monoloyer of L-929 mouse fibroblasts was placed on top of the media. The cells were incubated for about 24 hours at about 37° C. in a humidified atmosphere of about 5% CO2 in air. The mouse fibroblasts were then […] examined using the semi-quantitative scale defined in Table 1.\nAppropriate positive and negative controls were assessed to ensure the validity of the assay.", "key": {"[1]": {"details": "SDS concentration 4 μg/mL (approximate)"}, "[2]": {"details": "SDS concentration 8 μg/mL (approximate)"}, "[3]": {"details": "SDS concentration 16 μg/mL (approximate)"}, "[4]": {"details": "SDS concentration 17 μg/mL (approximate)"}, "[5]": {"details": "SDS concentration 20 μg/mL (approximate)"}, "[6]": {"details": "SDS concentration 23 μg/mL (approximate)"}, "[7]": {"details": "SDS concentration 26 μg/mL (approximate)"}, "[8]": {"details": "SDS concentration 29 μg/mL (approximate)"}, "[9]": {"details": "SDS concentration 32 μg/mL (approximate)"}}, "data": [{"smiles": "CCCCCCCCCCCCOS(=O)(=O)[O-].[Na+]", "note": "[SDS, sodium dodecyl sulfate]", "values": [{"measurement": "Cytotoxicity Score", "setting": "[1]", "result": 0}, {"measurement": "Pass/Fail", "setting": "[1]", "result": "Pass"}, {"measurement": "Cytotoxicity Score", "setting": "[2]", "result": 0}, {"measurement": "Pass/Fail", "setting": "[2]", "result": "Pass"}, {"measurement": "Cytotoxicity Score", "setting": "[3]", "result": 0}, {"measurement": "Pass/Fail", "setting": "[3]", "result": "Pass"}, {"measurement": "Cytotoxicity Score", "setting": "[4]", "result": 0}, {"measurement": "Pass/Fail", "setting": "[4]", "result": "Pass"}, {"measurement": "Cytotoxicity Score", "setting": "[5]", "result": 0}, {"measurement": "Pass/Fail", "setting": "[5]", "result": "Pass"}, {"measurement": "Cytotoxicity Score", "setting": "[6]", "result": 1}, {"measurement": "Pass/Fail", "setting": "[6]", "result": "Pass"}, {"measurement": "Cytotoxicity Score", "setting": "[7]", "result": 4}, {"measurement": "Pass/Fail", "setting": "[7]", "result": "Fail"}, {"measurement": "Cytotoxicity Score", "setting": "[8]", "result": 4}, {"measurement": "Pass/Fail", "setting": "[8]", "result": "Fail"}, {"measurement": "Cytotoxicity Score", "setting": "[9]", "result": 4}, {"measurement": "Pass/Fail", "setting": "[9]", "result": "Fail"}, {"measurement": "limit of toxicity for SDS, corresponding tissue content", "setting": "converted from μg/mL limit", "result": "86-98 ng of SDS/mg of tissue"}, {"measurement": "SDS content for tissue to be non-cytotoxic", "setting": "threshold from in vitro limit", "result": "less than 86 ng of SDS/mg of tissue"}]}]}
